Measured values as given in patent US7977366B2, “Treating an inflammatory disorder or inhibiting respiratory burst in adherent neutrophils with chemical inhibitors of neutrophil activation” (Cornell Research Foundation, Inc., priority 2003, dated 2011).
Entries after “also recorded” stand apart in the source; their conditions may differ.

Key:
human neutrophils = experiment: Neutrophil spreading on FBS-coated glass coverslips (phase-contrast microscopy); assay type: cell-based; conditions: TNF 100 ng/ml
Method: Glass coverslips were placed in 12 well tissue culture plate and coated with FBS in 5% CO2 at 37° C. for at least 1 h and washed three times with 0.9% saline. Neutrophils (2×10^6) were added to each well containing a FBS-coated glass coverslip and 1 ml of reaction mixture and incubated or not with each compound at 37° C. for 30 min before stimulation with TNF (100 ng/ml), PMA (100 ng/ml) or an equal volume of KRPG. Cells were fixed with 2% paraformaldehyde and 3.7% formaldehyde buffer, and photographed with phase-contrast microscope.
To determine whether any of these compounds are implicated in cytoskeletal rearrangement, neutrophils were treated with a compound of the present invention or DMSO and then activated with PMA or TNF. Human neutrophils, isolated as described herein above were plated on FBS-coated glass coverslips and incubated or not with a compound of the present invention at 37° C. for 30 min, followed by stimulation with TNF (100 ng/ml), PMA (100 ng/ml) or an equal volume of KRPG, fixed, and photographed with phase-contrast microscope. Neutrophils adhere and fully spread when activated. However, cells exposed to TNF after incubation with Comp I-IV were arrested in spreading. These compounds seem to block different stages of cell spreading. […] They display almost round and close to non-stimulated cell morphology to quite advanced, yet arrested phenotype before full spreading. […] None of the compounds impeded cell spreading induced by PMA.

Syk = experiment: TNF and adhesion triggered tyrosine phosphorylation of Syk in neutrophils (immunoprecipitation, western blot); assay type: cell-based, human; conditions: for inhibition of TNF and adhesion triggered tyrosine phosphorylation of Syk: moderately inhibited; for TNF and adhesion triggered tyrosine phosphorylation (activation) of Syk: result in words
Method: Tissue culture plates (Primaria, Falcon) were coated with 3 ml of FBS in 5% CO2 at 37° C. for at least 1 h and washed twice with 0.9% saline. Isolated human neutrophils (1.5×10^6) were added to each plate containing 4 ml of reaction mixture, incubated with each compound at 37° C. for 30 min, and stimulated with either buffer control or TNF (100 ng/ml). When cells were fully spread (20-40 min), they were treated with 5 mM diisopropylfluorophosphate to inhibit serine proteases and lysed with either 125 μl of SDS lysis buffer (10 mM Tris-HCl, pH 7.6, 150 mM NaCl, 1% SDS, 1 mM PMSF, 1 mM Na pyrophosphate, 1 mM NaF, 1 mM vanadate, 5 μg/ml each of aprotinin, leupeptin, chymostatin, pepstatin A) for western blot, or with 200 μl of non-denaturing modified RIPA buffer (10 mM Tris-HCl, pH 7.6, 150 mM NaCl, 1% Triton-X100, 1 mM PMSF, 1 mM Na pyrophosphate, 1 mM NaF, 1 mM vanadate, 5 μg/ml each of aprotinin, leupeptin, chymostatin, pepstatin A) for immunoprecipitation. The cell lysate was passed through a 26-gauge needle six times to shear DNA and centrifuged at 20,000×g for 15 min to remove cell debris and DNA. The protein concentration was determined using a Bio-Rad (Indianapolis, Ind.) kit. Cell lysates were separated by SDS-PAGE and transferred electrophoretically to nitrocellulose membranes (Schleicher & Schuell, Inc., Keene, N.H.). The membranes were incubated with 5% milk in TBST ([…], 0.1% Tween-20) for 1 h at 37° C. and then overnight at 4° C. with anti-phosphotyrosine antibody (Santa Cruz), anti-Syk antibody (Transduction Laboratories, Newington, N.H.), anti-phospho-specific Pyk2 antibodies (Biosource International, Camarillo, Calif.), or anti-Pyk2 antibody (Upstate Biotech, Waltham, Mass.). Membranes were washed with TBST and incubated with secondary Ab conjugated with HRP in 5% milk in TBST for 1 h at 37° C. After further washing with TBST, bound antibody was detected by enhanced chemiluminescence (Pierce ECL, Amersham Pharmacia, Piscataway, N.J.).
Also investigated was the impact of the compounds of the present invention on several known tyrosine kinases such as Src, Syk, and Pyk2, which are shown to be critical in the signaling pathways triggered by TNF. Kinase assays were performed according to the instructions provided by United Bioinformatica, Inc. ((UBI) Calgary, AB, Canada), from which recombinant Src and Syk were purchased. Briefly, after incubation of recombinant Src (40 U) (UBI, Calgary, AB, Canada) with each compound at RT for 30 min, Src kinase reaction buffer (100 mM Tris-HCl, pH 7.2, 125 mM MgCl2, 25 mM MnCl2, 2 mM EGTA, 0.25 mM NaOV4, 2 mM DTT), Src kinase substrate peptide (375 μM, UBI, Calgary, AB, Canada), and [γ-32P]ATP were added to the enzyme. After incubation at 30° C. for 10 min, the reaction was stopped by addition of 40% trichloroacetic acid (TCA). Samples were transferred to a P81 paper square (UBI, Calgary, AB, Canada), the unincorporated radioactivity was washed off with 0.75% phosphoric acid and acetone, and the assay square was placed in a scintillation counter. For Syk kinase assay, reaction buffer contained 50 mM Tris-HCl, pH 7.5, 0.1 mM EGTA, 0.1 mM NaOV4, 0.15 M 2-mercaptoethanol and substrate was poly (Glu-4-Tyr)(4:1) (CSI Biointernational, France). […] It appears that these compounds block—partially by Comp I and II and completely by Comp III and IV—upstream signaling events for Syk activation rather than directly blocking Syk activity.

| Compound | cell spreading triggered by TNF (human neutrophils) | inhibition of TNF and adhesion triggered tyrosine phosphorylation of Syk (Syk) | TNF and adhesion triggered tyrosine phosphorylation (activation) of Syk (Syk) |
| --- | --- | --- | --- |
| Cc1nc(N/N=C/c2ccccc2O)c2c3c(sc2n1)CCCC3 [Comp I, 2-[(2-Methyl-5,6,7,8-tetrahydro-benzo[4,5]thieno [2,3-a]pyrimidin-4-yl)-hydrazonomethyl]-phenol] | very heterogeneous morphology | about 50% |  |
| O=C1CC(c2ccccc2)=NN1c1cccc(Cl)c1 [Comp II, 2-(3-Chloro-phenyl)-5-phenyl-2,4-dihydro-pyrazol-3-one] | arrested after flattening and extending several filopodia; also recorded: inhibited | about 50% | did not block |
| C(=N\Nc1ncnc2sc3c(c12)CCCC3)/c1cccnc1 [Comp III, N-Pyridin-3-ylmethylene-N-(5,6,7,8-tetrahydro-benzo[4,5] [2,3-a]pyrimidin-4-yl)-hydrazine] | after extending a few pseudopodia; also recorded: block cell spreading at the earliest stage |  | completely inhibited |
| O=C(CSc1nc2ccccc2s1)N/N=C/c1cc([N+](=O)[O-])ccc1O [Comp IV, (Benzothiazol-2-ylsulfanyl)-acetic acid (2-hydroxy-5-nitro-benzylidene) -hydrazide] | arrested after flattening and extending several filopodia |  | completely inhibited |
